Experimental findings from paper PMC11412156 (Journal of medicinal chemistry, 2024) are described below.

One may read the IC50 as the concentration needed to halve the response being measured. A higher IC50 goes with weaker potency in that assay.

One series concerns the target T1, HDAC6 (Homo sapiens, UniProt Q9UBN7).
T1 sequence (Q9UBN7 1-1215): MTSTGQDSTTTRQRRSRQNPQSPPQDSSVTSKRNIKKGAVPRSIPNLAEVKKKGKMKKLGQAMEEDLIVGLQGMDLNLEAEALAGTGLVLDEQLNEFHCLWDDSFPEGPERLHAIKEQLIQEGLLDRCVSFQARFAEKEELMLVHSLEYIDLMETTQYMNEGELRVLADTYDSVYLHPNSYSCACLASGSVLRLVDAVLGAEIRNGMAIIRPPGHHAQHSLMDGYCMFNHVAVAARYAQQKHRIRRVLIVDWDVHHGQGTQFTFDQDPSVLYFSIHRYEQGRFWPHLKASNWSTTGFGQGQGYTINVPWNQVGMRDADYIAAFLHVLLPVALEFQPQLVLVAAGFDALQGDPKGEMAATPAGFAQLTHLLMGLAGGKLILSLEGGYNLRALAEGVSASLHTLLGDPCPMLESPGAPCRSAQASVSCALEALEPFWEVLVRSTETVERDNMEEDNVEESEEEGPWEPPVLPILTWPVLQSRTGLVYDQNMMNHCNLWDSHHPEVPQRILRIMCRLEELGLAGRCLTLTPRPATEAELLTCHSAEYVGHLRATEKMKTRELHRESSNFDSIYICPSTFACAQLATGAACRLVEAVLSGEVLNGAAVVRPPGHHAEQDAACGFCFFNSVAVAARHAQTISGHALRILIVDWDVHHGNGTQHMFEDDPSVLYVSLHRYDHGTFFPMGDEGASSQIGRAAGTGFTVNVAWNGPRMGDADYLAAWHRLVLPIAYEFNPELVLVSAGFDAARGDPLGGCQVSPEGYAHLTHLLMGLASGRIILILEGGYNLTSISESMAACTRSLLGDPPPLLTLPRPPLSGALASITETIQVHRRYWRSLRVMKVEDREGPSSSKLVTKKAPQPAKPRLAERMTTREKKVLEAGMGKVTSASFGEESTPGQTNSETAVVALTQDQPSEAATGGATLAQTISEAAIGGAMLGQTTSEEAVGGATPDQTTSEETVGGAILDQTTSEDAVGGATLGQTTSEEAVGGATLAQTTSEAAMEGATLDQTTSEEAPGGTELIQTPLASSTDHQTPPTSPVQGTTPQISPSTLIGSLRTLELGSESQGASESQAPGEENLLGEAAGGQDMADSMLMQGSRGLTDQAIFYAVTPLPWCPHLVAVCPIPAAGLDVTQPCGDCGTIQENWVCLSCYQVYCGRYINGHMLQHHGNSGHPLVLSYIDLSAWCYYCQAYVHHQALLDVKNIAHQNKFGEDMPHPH
The series is described as follows: HDAC enzyme-based fluorogenic assay, HDAC6. In kind it is biochemical. The note with it: final concentration of 2 μM, preliminary screen.

The target in the next series is T2, MsEH (Mus musculus, UniProt P34914).
T2 sequence (P34914 1-554): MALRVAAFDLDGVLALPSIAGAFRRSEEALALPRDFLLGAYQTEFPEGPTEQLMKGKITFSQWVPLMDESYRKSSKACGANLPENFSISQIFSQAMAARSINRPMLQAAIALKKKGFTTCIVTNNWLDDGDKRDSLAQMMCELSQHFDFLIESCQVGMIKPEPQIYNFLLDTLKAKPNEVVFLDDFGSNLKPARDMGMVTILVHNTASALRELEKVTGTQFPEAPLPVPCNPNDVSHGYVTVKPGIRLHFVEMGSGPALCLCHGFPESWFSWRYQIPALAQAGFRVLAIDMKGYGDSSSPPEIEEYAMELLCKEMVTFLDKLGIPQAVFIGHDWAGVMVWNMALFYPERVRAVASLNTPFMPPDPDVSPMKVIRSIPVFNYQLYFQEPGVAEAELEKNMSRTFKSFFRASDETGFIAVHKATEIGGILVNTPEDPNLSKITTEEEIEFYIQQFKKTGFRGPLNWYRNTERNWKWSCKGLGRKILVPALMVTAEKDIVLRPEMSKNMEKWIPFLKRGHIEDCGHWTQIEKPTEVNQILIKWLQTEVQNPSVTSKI
The series is described as follows: fluorescent-based sEH assay with PHOME as substrate. Format: biochemical.

For another series, the target named is T3, HsEH (Homo sapiens, UniProt P34913).
T3 sequence (P34913 1-555): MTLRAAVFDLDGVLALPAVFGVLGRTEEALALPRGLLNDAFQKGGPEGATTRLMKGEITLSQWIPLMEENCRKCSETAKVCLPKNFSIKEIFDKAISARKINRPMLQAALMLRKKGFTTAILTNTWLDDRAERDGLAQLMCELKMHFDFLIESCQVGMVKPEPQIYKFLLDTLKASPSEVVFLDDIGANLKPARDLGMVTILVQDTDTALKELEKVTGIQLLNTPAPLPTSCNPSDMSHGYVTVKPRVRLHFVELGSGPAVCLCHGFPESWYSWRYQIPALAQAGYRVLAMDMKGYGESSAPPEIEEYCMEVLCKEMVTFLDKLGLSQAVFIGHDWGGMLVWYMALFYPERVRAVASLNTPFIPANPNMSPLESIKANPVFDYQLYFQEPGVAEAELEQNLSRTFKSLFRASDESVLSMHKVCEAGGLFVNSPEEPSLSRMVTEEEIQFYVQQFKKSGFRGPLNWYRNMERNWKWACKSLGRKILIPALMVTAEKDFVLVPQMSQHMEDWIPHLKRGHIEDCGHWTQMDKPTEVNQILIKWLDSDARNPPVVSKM
Described as above. Format: biochemical.

Series [1] is described as follows: In vitro metabolic stability in rat liver microsomes. Format: in vitro ADME. The note with it: for metabolic stability in RLM, column 0: incubation 0 min; for metabolic stability in RLM, column 0 / metabolic stability in RLM, column 10 / metabolic stability in RLM, column 30 / metabolic stability in RLM, column 45 / metabolic stability in RLM, column 60: 37 °C, NADPH; for metabolic stability in RLM, column 10: incubation 10 min; for metabolic stability in RLM, column 30: incubation 30 min; for metabolic stability in RLM, column 45: incubation 45 min; for metabolic stability in RLM, column 60: incubation 60 min; for t1/2 in RLM: rat liver microsomes.

In series [2] the test system is xylene-induced ear swelling inflammation in mice. Description: Xylene-induced ear swelling inflammation model in mice. In kind it is in vivo, Kunming mice. The note with it: Table 7 dose study, 10 mg/kg by gavage for 7 days.
For series [3], the system named is formalin-induced inflammatory pain in mice. Description: Formalin-induced inflammatory pain model in mice. Format: in vivo, Kunming mice. The note with it: dose study, Figure 15; 10 mg/kg, compared with the model group.

Regarding `Cc1ccc(NC(=O)Nc2ccc(C(=O)N3CCC[C@H](C(=O)NCCCCCCC(=O)NO)C3)cc2F)cc1F` [Compound 28h, (S)-1-(3-Fluoro-4-(3-(3-fluoro-4-methylphenyl)ureido)benzoyl)-N-(7-(hydroxyamino)-7-oxoheptyl)piperidine-3-carboxamide], on HDAC6, the HDAC6 inhibitor rate was more than 91%. In addition, the IC50 against MsEH came out at 7.4 nM; against HsEH it was 0.7 nM.
`Cc1cc(NC(=O)Nc2ccc(C(=O)N3CCC[C@H](C(=O)NCCCCCCC(=O)NO)C3)cc2F)ccc1F` [Compound 28i, (S)-1-(3-Fluoro-4-(3-(4-fluoro-3-methylphenyl)ureido)benzoyl)-N-(7-(hydroxyamino)-7-oxoheptyl)piperidine-3-carboxamide]: the IC50 stood at 7.7 nM against MsEH and 1.2 nM against HsEH.
For `C[C@]12C[C@@H]3C[C@](C)(C1)C[C@@](NC(=O)Nc1ccc(C(=O)N4CCC[C@H](C(=O)NCCCCCCC(=O)NO)C4)cc1F)(C3)C2` [Compound 7d, (S)-1-(4-(3-((1r,3R,5S,7S)-3,5-Dimethyladamantan-1-yl)ureido)-3-fluorobenzoyl)-N-(7-(hydroxyamino)-7-oxoheptyl)piperidine-3-carboxamide], the HDAC6 inhibitor rate at HDAC6 is 63%.
The same measure, in the same setting: the same measure for `O=C(CCCCCCNC(=O)[C@H]1CCCN(C(=O)c2ccc(NC(=O)Nc3ccc(OC(F)(F)F)c(F)c3)c(F)c2)C1)NO` [Compound 28a, (S)-1-(3-Fluoro-4-(3-(3-fluoro-4-(trifluoromethoxy)phenyl)ureido)benzoyl)-N-(7-(hyd-roxyamino)-7-oxoheptyl)piperidine-3-carboxamide]: more than 91%.
As for `C[C@]12C[C@@H]3C[C@](C)(C1)C[C@@](NC(=O)Nc1ccc(CN4CCC[C@H](C(=O)NCCCCCCC(=O)NO)C4)cc1F)(C3)C2` [Compound 16d, (S)-1-(4-(3-((1r,3R,5S,7S)-3,5-Dimethyladamantan-1-yl)ureido)-3-fluorobenzyl)-N-(7-(hydroxyamino)-7-oxoheptyl)piperidine-3-carboxamide], at HDAC6, the HDAC6 inhibitor rate is on record as 63%. In addition, in series [1], the “metabolic stability in RLM, column 0” value stood at 100.00; the “metabolic stability in RLM, column 10” value is recorded as 89.16; the “metabolic stability in RLM, column 30” value amounted to 79.33; the “metabolic stability in RLM, column 45” value was found to be 52.13. Moreover, in series [1], the “metabolic stability in RLM, column 60” value is 46.62 and the “t1/2 in RLM” value worked out at 0.8165 h.
For the molecule `CC12CC3CC(C)(C1)CC(Nc1c(Nc4ccc(CN5CCC[C@H](C(=O)NCCCCCCC(=O)NO)C5)cc4F)c(=O)c1=O)(C3)C2` [Compound 34d, (S)-1-(4-((2-(((1r,3R,5S,7r)-3,5-Dimethyladamantan-1-yl)amino)-3,4-dioxocyclobut-1-en-1-yl)amino)-3-fluorobenzyl)-N-(7-(hydroxyamino)-7-oxoheptyl)piperidine-3-carb-oxamide], in series [1], the “metabolic stability in RLM, column 0” value amounted to 100.00; the “metabolic stability in RLM, column 10” value stood at 82.82; the “metabolic stability in RLM, column 30” value was 73.29; the “metabolic stability in RLM, column 45” value was determined as 66.27. Further, in series [1], the “metabolic stability in RLM, column 60” value is listed as 50.51 and the “t1/2 in RLM” value stood at 1.223 h.
For the molecule `O=C(CCCCCCNC(=O)[C@H]1CCCN(C(=O)c2ccc(NC(=O)NC(c3ccccc3)c3ccccc3)c(F)c2)C1)NO` [Compound 28k, (S)-1-(4-(3-Benzhydrylureido)-3-fluorobenzoyl)-N-(7-(hydroxyamino)-7-oxoheptyl) piperidine-3-carboxamide], on HDAC6, the HDAC6 inhibitor rate turned out to be 63.58%.
Consider `O=C(CCCCCCNC(=O)[C@H]1CCCN(C(=O)c2ccc(NC(=O)Nc3ccc(F)c(Cl)c3)c(F)c2)C1)NO` [Compound 28e, (S)-1-(4-(3-(3-Chloro-4-fluorophenyl)ureido)-3-fluorobenzoyl)-N-(7-(hydroxyamino)-7-oxoheptyl)piperidine-3-carboxamide], for which the figures for the IC50 at MsEH and on HsEH were 5.4 nM and 0.7 nM, respectively.
In series [2], `Cc1ccc(-c2cc(C(F)(F)F)nn2-c2ccc(S(N)(=O)=O)cc2)cc1` [Celecoxib, reference compound] displayed an Inhibition rate of 32.83%, a Swelling degree of 10.5 ± 1.5 mg and a Swelling rate of 74.21%. The “pain response, second phasic response” value in series [3] is reported as “reduced the pain response”.
